Patent publication US20260098053A1, “COMPOSITIONS AND METHODS FOR TREATING CNS DISORDERS” (SAGE THERAPEUTICS, INC., priority 2019, published 2026)
Like-named read-outs stand apart in the source and are kept apart here.

Molecular target: [35S]-TBPS binding, rat brain cortical membranes
Experiment: Steroid inhibition of [35S]-TBPS binding
Conditions: in the presence of 5 mM GABA
Outline: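 Washed P2 cortical membranes from Sprague-Dawley rats, in 200 mM NaCl/50 mM Na-K phosphate pH 7.4, incubated 90 min at room temp with 3 nM [35S]-TBPS, […] GABA and test drug (0.5% DMSO final). Nonspecific binding defined with […] unlabeled TBPS; filtration and scintillation counting. IC50 and Imax from non-linear curve fits, means±SEM of experiments.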

[1] = Table 4, 3 nM [35S]-TBPS, read-out: TBPS IC50
[2] = Table 5, 3 nM [35S]-TBPS, read-out: TBPS IC50

C[C@@]1(O)CCC[C@H]2[C@H](CC[C@@H]3[C@@H]2CC[C@]2(C)[C@@H](C(=O)Cn4cc(C#N)cn4)CCC[C@@H]32)C1 [Example 10]
IC50 [1]: < 100 nM

CC[C@]12CC[C@H]3[C@@H](CC[C@@H]4C[C@](C)(O)CC[C@@]43C3CC3)[C@@H]1CC[C@@H]2C(C)=O [Example 88, 1-((3R,5R,8S,9S,10R,13S,14S,17S)-10-cyclopropyl-13-ethyl-3-hydroxy-3-methylhexadecahydro-1H-cyclopenta[a]phenanthren-17-yl)ethanone]
IC50 (Table 6, 3 nM [35S]-TBPS, read-out: IC50): < 100 nM

C[C@@]1(O)CCC[C@@]2(C)[C@H](CC[C@@H]3[C@@H]2CC[C@]2(C)[C@H](C(=O)Cn4cc(C#N)cn4)CCCC[C@@H]32)C1 [Example 61, 1-(2-((1R,5aS,5bR,7aR,9R,12aS,12bS,14aS)-9-hydroxy-9,12a,14a-trimethylicosahydrodicyclohepta[a,f]naphthalen-1-yl)-2-oxoethyl)-1H-pyrazole-4-carbonitrile]
IC50 [1]: 100 to 1000 nM

CC(=O)[C@H]1CC[C@H]2[C@@H]3CC[C@H]4C[C@](C)(O)CC[C@@H]4[C@H]3CC[C@@H]21 [Example 72, 1-((3R,5S,8R,9R,10S,13S,14S,17S)-3-hydroxy-3-methylhexadecahydro-1H-cyclopenta[a]phenanthren-17-yl)ethanone]
IC50 [2]: > 1000 nM

CC(=O)[C@@H]1CCC[C@H]2[C@@H]3CC[C@@H]4C[C@](C)(O)CC[C@@H]4[C@H]3CC[C@@H]21 [Example 75, 1-((1R,4aS,4bR,6aR,8R,10aS,10bR,12aS)-8-hydroxy-8-methyloctadecahydrochrysen-1-yl)-ethanone]
IC50 [2]: > 1000 nM

C[C@@]1(O)CC[C@H]2[C@H](CC[C@H]3[C@@H]4CC[C@H](C(=O)Cn5cc(C#N)cn5)[C@@H]4CC[C@@H]32)C1 [Example 84, 1-(2-((3R,5R,8R,9R,10S,13R,14S,17S)-3-hydroxy-3-methylhexadecahydro-1H-cyclopenta[a]phenanthren-17-yl)-2-oxoethyl)-1H-pyrazole-4-carbonitrile]
IC50 [2]: 100 to 1000 nM

COC[C@@]1(O)CCC[C@@]2(C)[C@@H](CC[C@@H]3[C@@H]2CC[C@]2(C)[C@@H](C(=O)Cn4cc(C#N)cn4)CCC[C@@H]32)C1 [Example 43]
IC50 [1]: < 100 nM
